From patent US6214792A, “Method for treating acute and severe diarrhea” (priority 1999, dated 2001)

Assays:
[1] = tested on: patient addicted to narcotics; details: background statement, prior practice, dose not given; cited from earlier work
[2] = tested on: patient addicted to narcotics; details: background statement, prior practice, dose not given; cited from earlier work; remark: listed apart in the source
[3] = tested on: patient addicted to narcotics; test: Clinical tolerability (bradycardia, abdominal distention) of octreotide during rapid narcotic detoxification; details: parenteral
From the text: A patient addicted to narcotics undergoes intravenous cannulation by either the peripheral or central venous route, and the appropriate intravenous solution is infused intravenously at the required rate for the size and conditions of the patient. Monitors of life function are attached to the patient which may include a pulse oximeter, electrocardiogram patches, a blood pressure cuff attached to a sphygmomanometer and a means to measure the carbon dioxide of the patient's exhaled breath by way of capnography.
This is typically followed by intravenous administration of a medication such as a depolarizing or non-depolarizing neuromuscular blocking agent to facilitate intubation of the patient's trachea. The endotracheal tube is then secured in the correct anatomic position using usual anesthetic care measures. After stabilization of the patient's life functions as usually done in routine anesthetic management, the patient is administered parenterally about 0.025 mg to about 0.1 mg octreotide, preferably about 0.0007 mg/kg of body weight.
As noted previously, glycopyrrolate is preferred and is administered parenterally with the octreotide in an amount ranging from about 0.2 mg to above 0.4 mg glycopyrrolate. However, from about 0.2 mg to about 0.4 mg atropine administered parenterally is also effective.

[4] = tested on: patient addicted to narcotics; test: Clinical treatment of acute and severe diarrhea accompanying rapid narcotic detoxification (acute withdrawal); format: in vivo, human; details: parenteral, about 0.025 mg to about 0.1 mg octreotide, preferably about 0.0007 mg/kg, before nalmefene
Procedure: A medication to induce unconsciousness is administered, preferably by the intravenous route, in doses appropriate for the patient's weight and medical condition. This medication should be a non-opioid derivative not related to the narcotic classification of drugs, such as midazolam, propofol, sodium pentothal, a combination thereof, or other drugs commonly used to induce unconsciousness. As a specific example, a dose of 0.3 milligrams of midazolam per kilogram of body weight administered intravenously is usually sufficient to produce unconsciousness.
After octreotide and glycopyrrolate have been administered and the patient's vital signs are stable, nalmefene is administered parenterally, preferably by intravenous route. For a 70 kilogram adult patient, the typical initial dose of parenteral nalmefene is from about 0.5-1.5 mg to no more than about 1.5-2.0 of nalmefene. The dosage is adjusted proportionally based on the weight of the patient, and the rate of administration of nalmefene may be titrated upward or downward depending on the response of the patient's sympathetic nervous system as evidence by monitoring of life functions and other clinical criteria. Some time thereafter, usually no more than four hours after said administration of nalmefene is complete, the patient can be expected to be detoxified and can be safely rendered back to a state of consciousness. […]

**Q.** Which incidence of bradycardia [1] does the source give for octreotide here?
**A.** The incidence of bradycardia was “unacceptable incidence of bradycardia”.

**Q.** And the “treating clinically significant diarrhea during rapid detoxification” value [2]?
**A.** Its value is “proven effective”.

**Q.** What about the “bradycardia in the post-detoxification period” value ([3]; about 0.025 mg to about 0.05 mg octreotide every 12 hours) of the same substance?
**A.** The value was “without causing significant bradycardia”.

**Q.** And the bradycardia ([3]; about 0.025 mg to about 0.1 mg octreotide, preferably about 0.0007 mg/kg)?
**A.** Its bradycardia is “does not precipitate significant bradycardia”.

**Q.** And the abdominal distention ([3]; about 0.025 mg to about 0.1 mg octreotide, distention frequently observed at higher dosage levels)?
**A.** The abdominal distention was “does not result in the abdominal distention”.

**Q.** And the “prevention of acute and severe diarrhea accompanying acute detoxification” value [4]?
**A.** The value was “sufficient to prevent the acute and severe diarrhea”.
